Data set [1] addresses T1, recombinant Btk kinase enzyme (Homo sapiens, UniProt Q06187).
T1 construct: purchased SignalChem B10-10H
The data set is described as follows: In vitro inhibition of Btk kinase activity (ADP-Glo). The format is biochemical. The conditions noted are these: Table 8; ADP-Glo; read-out: IC50 kinase BTK. The procedure: To assess Btk kinase activity described herein, SignalChem kinase system was used. Btk kinase activity was determined in the reaction between recombinant Btk kinase enzyme (SignalChem #B10-10H) and Poly (4:1 Glu, Tyr) peptide substrate in the presence of the inhibitor.
Staurosporine (Abcam Biochemicals, ab146588) was used as a reference inhibitor and 0.1% DMSO in the reaction buffer—as a negative control. The solution of 0.5 mg/mL peptide substrate and 50 &M ATP in the same buffer were added; the solution was incubated for 180 minutes at 37° C. To detect the amount of ATP taken up during the kinase reaction, the equivalent amount of ADP (from the ADP Glo Detection Kit (Promega, #V9101)) was used according to the protocol. The reaction mixture was equilibrated to room temperature. 25 µL of ADP-Glo Reagent were added into each well; the plate was incubated for 40 minutes. 50 μL of Kinase Detection Reagent were added; the plate was incubated for 30 minutes. The luminescence was measured with multimode plate reader (Tecan Infinite M200Pro, Switzerland). IC50 values were calculated using Magellan 7.2 software (Tecan, Switzerland) approximating experimental points by four-parameter logistic model with the optimization by Levenberg-Marquardt.

A short description of data set [2]: Permeability through the monolayer of Caco-2 cells. The format is in vitro ADME. The conditions noted are these: human; for Papp A→B at 2 h, 10 μM / Papp B→A at 2 h, 10 μM: 2 h at 37° C.; for efflux ratio at 2 h, 10 μM: read-out: efflux (Papp B-A/Papp A-B). An excerpt:
Assessment of permeability through the monolayer of Caco-2 cells allows to evaluate the ability of the candidate compounds to penetrate through biological membranes by active and passive transport.
Caco-2, the cells of the intestinal epithelium, had been cultured in transwell plate inserts with the filters (with pores of 0.4 μm, BD Falcon with High Density, #353495) for 21 days, and then the integrity of the monolayer were estimated with Lucifer Yellow dye (Sigma-Aldrich, USA) by standard protocol. When setting the A→B transfer, solutions of test substances were added in a buffer with pH 6.5 (Hanks solution, 10 mM HEPES, 15 mM glucose solution) with the concentration of 10 μM into the upper chamber; the lower chamber was filled with a buffer with pH 7.4 (Hanks solution, 10 mM HEPES, 15 mM glucose solution, 1% BSA). When setting B→A transfer, the upper chamber was filled with the buffer with pH 6.5, and solutions of the test substances were added in the buffer with pH 7.4 at the concentration of 10 μM in the lower chamber. Propranolol was used as a control substance (as it has high permeability).
We used gradient elution (1 mL/min flow rate). We determined the areas of peaks corresponding to the compounds. On the basis of peak areas in the calibration standards we determined the concentration of compound in the initial solution and in the samples from the wells of the upper and lower chambers.
Papp, permeability through the cell layer, was calculated using the following formula:
Papp=(C(t)*V)/(C(0)*t*Area), where
Papp is the effective constant of permeability, m/s V is the volume of solution (0.8 ml in A→B test, 0.2 ml in B→A test), ml Area is the surface area of the membrane (0.33 cm^2), cm^2 t is the time of incubation (7200 sec), sec C(0) is the concentration of the initial solution, μM C(t) is the concentration of the solution after 2 hours (the concentration in the sample from the well of the lower chamber in A→B test; the concentration in the sample from the well of the top chamber in B→A test), μM
The value was calculated with the following formula:
efflux=Papp B-A/Papp A-B, where
Papp A-B is the value of the permeability in the direct test (A→B); Papp B-A is the value of the permeability in the backward test in (B→A).
In general terms: Caco-2 cells form a polarised layer with tight junctions and transporters.

Data set [3] concerns Mino (mantle cell lymphoma). The data set is described as follows: Antiproliferative activity, Mino cells (Alamar Blue). The conditions noted are these: Homo sapiens, Table 10, 72 h, average of several tests. The data set is classed as cell-based. In a few lines:
(§1)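 A 72 h growth-inhibition assay using Alamar Blue fluorescence as the viability readout, with IC50 taken from a four-parameter logistic curve.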

Data set [4] relates to Z-138 (mantle cell lymphoma). The data set is described as follows: Antiproliferative activity, Z-138 cells (Alamar Blue). The format is cell-based. The conditions noted are these: Homo sapiens, Table 10, 72 h, average of several tests. In a few lines:
as §1

The test system of data set [5] is DOHH2 (follicular lymphoma). Briefly: Antiproliferative activity, DOHH2 cells (Alamar Blue). The data set is classed as cell-based. Conditions: Homo sapiens, DOHH-2, Table 10, 72 h, average of several tests. The procedure:
Antiproliferative activity of BTK inhibitors was measured in cell-based bioassay on B-cells cultures: Mino (mantle cell lymphoma, ATCC® CRL-3000™), Z-138 (mantle cell lymphoma, ATCC® CRL-3001™) and DOHH2 (follicular lymphoma, Creative Bioarray CSC-C0219) using cell viability reagent Alamar Blue (Invitrogen, #DAL 1100). Cells were cultured in 10% FB S-supplemented (HyClone, #SH3008803/Gibco, #16140-071) RPMI-1640 (PanEco, #S330p) for at least 1 passage after thawing, washed with PBS and passaged in 96-well culture plates (Corning, #3599) with growth medium with 10% FBS (HyClone, #SH3008803/Gibco, #16140-071) and antibiotic (50 μg/ml of gentamicin (Biolot, #1.3.16))≈3*10^4 cells in 50 μl of medium per well.
The compounds were dissolved in DMSO and diluted with the assay medium to final concentrations ranging from […]. 150 μl of each diluted compound were then added to each well (final concentration of DMSO was less than 1%) and incubated at 37° C. in an incubator under 5% of CO2 for 72 h. After incubation, 20 μl of Alamar Blue reagent (Invitrogen, #DAL1100) were added to each well. The plates were shaked on an orbital shaker (Biosan, Latvia) and then incubated for 14-16 hours at 37° C. in the incubator.
The number of living cells were estimated, measuring the fluorescence signal at the excitation wavelength (REx) of 540 nm and the emission wavelength (λEm) of 590 nm on a microplate reader (Tecan Infinite M200Pro, Switzerland).
For each compound, IC50 was calculated using Magellan 7.2 software (Tecan, Switzerland) approximating experimental points by four-parameter logistic model with the optimization by Levenberg-Marquardt.
(In general: Alamar Blue is a resazurin reagent that responds to reducing activity.)

The nature of data set [6]: General cytotoxicity on HepG2 cells (CC50; therapeutic index CC50 HepG2/IC50 Mino). The data set is classed as cell-based. Conditions: human, HepG2 cells (hepatocellular carcinoma); Table 10; 72 hours, Alamar Blue; average of several tests. In a few lines:
(§2)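 Alamar Blue viability after 72 h exposure to compounds (final 200 μM–4 μM) gave CC50; HepG2 plated 2*10^4/well in DMEM 24 h beforehand. Therapeutic index expressed as ratio of HepG2 CC50 to Mino antiproliferative IC50.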

Data set [7] concerns HepG2 cells (hepatocellular carcinoma). The description is as above. The data set is classed as cell-based. The conditions noted are these: Table 10; therapeutic index. In a few lines: as §2
Data set [8] can be described thus: Stability in human blood plasma. Conditions: 10 μM in pooled human blood plasma, incubated 4 hours at 37° C.
Description: To assess the blood plasma stability of the drug candidates, we used pooled human blood plasma taken from ten healthy donors. The initial solution (10 Mm in DMSO) was diluted with pooled blood plasma to 10 μM (test solution). The test solution had been incubated for 4 hours in a dry block heater at 37° C. We determined peak areas of the compounds corresponding to the start of the test (before incubating) and the end of the test (after incubating in a dry block heater at 37° C.) by HPLC using Agilent1200 chromatograph (Agilent, USA) with preliminary protein precipitation with acetonitrile. We used gradient elution (1 mL/min flow rate). We determined amount of substance in the sample in % after incubation.
We evaluated the stability of the compounds.
Data set [9] in a line: Chemical stability in artificial gastric fluid (SGF without enzymes). The conditions noted are these: 10 μM in SGF without enzymes, pH=1.4, 37° C.

T1 sequence (Q06187 whole entry): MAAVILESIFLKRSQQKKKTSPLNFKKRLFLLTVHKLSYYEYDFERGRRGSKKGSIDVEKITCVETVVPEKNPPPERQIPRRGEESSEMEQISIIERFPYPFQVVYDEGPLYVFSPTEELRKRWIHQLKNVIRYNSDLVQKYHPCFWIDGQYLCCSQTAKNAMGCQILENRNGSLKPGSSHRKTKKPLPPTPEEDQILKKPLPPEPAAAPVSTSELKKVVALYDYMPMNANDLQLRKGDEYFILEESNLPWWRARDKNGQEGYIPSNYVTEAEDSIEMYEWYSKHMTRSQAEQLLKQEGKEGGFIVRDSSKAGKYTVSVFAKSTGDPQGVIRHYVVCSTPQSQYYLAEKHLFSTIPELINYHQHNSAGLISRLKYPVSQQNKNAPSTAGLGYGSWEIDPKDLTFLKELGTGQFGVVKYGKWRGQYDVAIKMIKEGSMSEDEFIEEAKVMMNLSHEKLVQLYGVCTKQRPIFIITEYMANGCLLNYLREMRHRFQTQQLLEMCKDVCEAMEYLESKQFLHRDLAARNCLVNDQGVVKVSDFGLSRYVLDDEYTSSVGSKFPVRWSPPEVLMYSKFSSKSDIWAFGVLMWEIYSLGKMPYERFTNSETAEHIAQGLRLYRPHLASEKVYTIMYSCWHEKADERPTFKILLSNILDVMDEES

In general, IC50 refers to the concentration needed to halve the response being measured. With `C=CC(=O)N1CCC[C@@H](n2nc(-c3ccc(Oc4ccncc4)cc3)c3c(N)ncc(C(N)=O)c32)C1` [BCD-BTK-135, (R)-1-(1-acryloylpiperidin-3-yl)-4-amino-3-(4-(pyridin-4-yloxy)phenyl)-1H-pyrazolo[4,3-c]pyridin-7-carboxamide], the half-maximal inhibitory concentration (IC50) in data set [1] amounted to 0.00628 µM.
One may read the Papp A→B as the apparent permeability from the apical to the basolateral side of a cell layer. Broadly, the Papp B→A is how fast a substance crosses the layer from the basolateral side. What is called CC50 is the concentration at which the toxic effect on the cells reaches its halfway point. Low values mean greater toxicity to the cells, high ones lower toxicity to the cells. With `C=CC(=O)N1CCC[C@@H](n2nc(-c3ccc(Oc4ccncc4C#N)cc3)c3cncc(F)c32)C1` [BCD-BTK-217, (R)-4-(4-(1-(1-acryloylpiperidin-3-yl)-7-fluoro-1H-pyrazolo[4,3-c]pyridin-3-yl)phenoxy)nicotinonitrile], in data set [2], the Papp A→B at 2 h, 10 μM was 37.3 ×10⁻⁶ cm/s; the Papp B→A at 2 h, 10 μM amounted to 18.9 ×10⁻⁶ cm/s; the efflux ratio at 2 h, 10 μM worked out at 0.51. Further, the IC50 in data set [3] worked out at 17.4 µM. Half-maximal inhibition in data set [4] (IC50) was put at 13.9 µM. The same molecule gave an IC50 in data set [5] of 16.1 µM. In data set [6], this molecule registered a CC50 at 72 h of 40.1 µM. In addition, the “CC50 (HepG2)/IC50 (Mino)” value in [7] was 2.31. Also, in data set [8], the “Amount of substance in the sample, % (stability in human blood plasma)” value (shortened to “Amount of substance in the sample, %”) is 90.8%.
As for `C=CC(=O)N1CCC[C@@H](n2nc(-c3ccc(Oc4cncc(C(N)=O)c4)cc3)c3cncc(Cl)c32)C1` [BCD-BTK-222, 5-(4-{7-chloro-1-[(3R)-1-(prop-2-enoyl)piperidin-3-yl]-1H-pyrazolo[4,3-c]pyridin-3-yl}phenoxy)pyridine-3-carboxamide], in data set [2], the Papp A→B at 2 h, 10 μM was determined as 5.06 ×10⁻⁶ cm/s; the apparent permeability from basolateral to apical (Papp B→A) at 2 h, 10 μM worked out at 6.97 ×10⁻⁶ cm/s; the efflux ratio at 2 h, 10 μM amounted to 1.38. In [3], this molecule displayed an IC50 of 19.4 µM. Also, in data set [4], the IC50 worked out at 26.3 µM. The IC50 in [5] turned out to be 26.3 µM. In addition, half-maximal cytotoxicity in data set [6] (CC50 at 72 h) was put at 50.2 µM. In data set [7], the “CC50 (HepG2)/IC50 (Mino)” value was 2.60. In addition, in data set [8], the “Amount of substance in the sample, %” value was 100.0%. The “Amount of substance in the sample in % (chemical stability)” value (from here on “Amount of substance in the sample in %”) in [9] is listed as 100%.
As for `C=CC(=O)N1CCC[C@@H](n2nc(-c3ccc(C(=O)Nc4ncccc4F)cc3)c3cncc(Cl)c32)C1` [BCD-BTK-226, (R)-4-(1-(1-acryloylpiperidin-3-yl)-7-chloro-1H-pyrazolo[4,3-c]pyridin-3-yl)-N-(3-fluoropyridin-2-yl)benzamide], in data set [2], the Papp A→B at 2 h, 10 μM came to 12.1 ×10⁻⁶ cm/s; the Papp B→A at 2 h, 10 μM turned out to be 5.5 ×10⁻⁶ cm/s; the efflux ratio at 2 h, 10 μM turned out to be 0.45. In addition, half-maximal inhibition in data set [3] (IC50) required 5.97 µM. In addition, the IC50 in data set [4] was found to be 7.24 µM. For the same molecule, 8.05 µM corresponded to half-maximal inhibition in data set [5] (IC50). Further, it took 19 µM to reach half-maximal cytotoxicity in data set [6] (CC50 at 72 h). Also, the “CC50 (HepG2)/IC50 (Mino)” value in [7] is listed as 3.19. The “Amount of substance in the sample, %” value in data set [8] stood at 84.5%. The “Amount of substance in the sample in %” value in data set [9] is 100%.
Regarding `C=CC(=O)N1CCC[C@@H](n2nc(-c3ccc(C(=O)Nc4ccccn4)cc3)c3cncc(F)c32)C1` [BCD-BTK-243, (R)-4-(1-(1-acryloylpiperidin-3-yl)-7-fluoro-1H-pyrazolo[4,3-c]pyridin-3-yl)-N-(pyridin-2-yl)benzamide], the IC50 in data set [1] is 0.0293 µM. Further, the “Amount of substance in the sample in %” value in data set [9] amounted to 99.6%.
The like results for `C=CC(=O)N1CCC[C@@H](n2nc(-c3ccc(C(=O)Nc4ccc(F)cn4)cc3)c3cncc(F)c32)C1` [BCD-BTK-244, (R)-4-(1-(1-acryloylpiperidin-3-yl)-7-fluoro-1H-pyrazolo[4,3-c]pyridin-3-yl)-N-(5-fluoropyridin-2-yl)benzamide] were, in that order, 0.0557 µM and 100%.
Regarding `C=CC(=O)N1CCC[C@@H](n2nc(-c3ccc(C(=O)Nc4cccc(F)n4)cc3)c3c(N)ncc(Cl)c32)C1` [BCD-BTK-250, (R)-4-(1-(1-acryloylpiperidin-3-yl)-4-amino-7-chloro-1H-pyrazolo[4,3-c]pyridin-3-yl)-N-(6-fluoropyridin-2-yl)benzamide], the IC50 in data set [1] turned out to be 0.0153 µM; in [3] it was 2.38 µM; in data set [4], 3.26 µM. Further, in data set [6], the CC50 at 72 h came to 12.2 µM. Besides, in data set [7], the “CC50 (HepG2)/IC50 (Mino)” value was found to be 5.13.
The like results for `C=CC(=O)N1CCC[C@@H](n2nc(-c3ccc(C(=O)Nc4cc(C(F)(F)CCC)ccn4)cc3)c3c(N)ncc(Cl)c32)C1` [BCD-BTK-254, (R)-4-(1-(1-acryloylpiperidin-3-yl)-4-amino-7-chloro-1H-pyrazolo[4,3-c]pyridin-3-yl)-N-(4-(1,1-difluorobutyl)pyridin-2-yl)benzamide] were, in that order, 0.0112 µM, 2.95 µM, 6.65 µM, 12.3 µM and 4.18.
With `C=CC(=O)N1CC[C@H](n2nc(-c3ccc(C(=O)Nc4ccccn4)cc3)c3cncc(Cl)c32)C1` [BCD-BTK-273, (S)-4-(1-(1-acryloylpyrrolidin-3-yl)-7-chloro-1H-pyrazolo[4,3-c]pyridin-3-yl)-N-(pyridin-2-yl)benzamide], in [1], the IC50 is 0.0261 µM. Further, in [9], the “Amount of substance in the sample in %” value was 100%.

These data come from patent US20190352276A1, “INHIBITORS OF BRUTON'S TYROSINE KINASE” (Joint Stock Company "Biocad", priority 2016, published 2019).
